Ends that are not written are not given here.
Legend:
[1] = system: CHO cells; experiment: In vitro transfection with polymer:liposome:PCI-Luc complexes, luciferase activity; format: cell-based, Chinese hamster
Method: (§1) 4.5×10^4 cells (MDA-MB-435, NIH3T3 or CHO) were initially plated into 24 well dishes. After 48 hours, when the cells were 60 and 80% confluent, cells were transfected with a plasmid encoding luciferase (PCI-Luc). In transfection experiments, the copolymer was initially incubated with PCI-Luc for 30 minutes in OptiM. The amount of copolymer which varied from 0.25 nmole to 15 nmole was mixed with the plasmid or oligonucleotide. The concentration of DNA varied from 0.25 μg to 0.75 μg. No visible aggregation of the polymer with the plasmid DNA was apparent at these concentrations. Cationic liposomes were then added, gently mixed, and then allowed to stand for an additional 30 minutes. The polymer:liposome:DNA complex was then diluted with either OptiM or OptiM+10% serum. In experiments utilizing lysomotropic agents, either chloroquine (Sigma, St. Louis, Mo.) or bafilomycin Al (Sigma) was added to the media at concentrations of 10 ng/ml and 25 μM, respectively. Four hours after transfection, the complexes were removed and DMEM with 10% serum was added. Forty-eight hours later, luciferase levels were measured with the Turner 20/20 luminometer. Duplicates were done for each concentration and each experiment was performed twice.

[2] = system: NIH-3T3 cells; experiment: as above; format: cell-based
Method: as §1

[3] = Effect of adding transition metal on transfection efficiency of polymer:liposome:DNA complexes; format: cell-based; conditions: Zn2+ 0 to 2.00 μg/ml added to H-K2b, H-K3b or H-K4b:liposome:DNA
Method: To determine the effect of adding transition metals on the transfection efficiency of a polymer:DNA complex, 0.25 μg H-K2b, 0.125 μg H-K3b, or 0.125 μg H-K4b were initially mixed with 0.75 μg DNA. After 30 minutes, cationic liposomes were added for 30 minutes. Zn^2+ was then added in an amount ranging from 0 to 2.00 μg/ml. As a control, various amounts of zinc were added to the liposome:DNA complex.

[4] = system: MDA-MB-435 cells; experiment: In vitro transfection with polymer:liposome:PCI-Luc complexes, luciferase activity; format: cell-based, human; conditions: for transfection efficiency compared to H-K (19-mer): polymer:liposome:PCI-Luc; for transfection efficiency of the liposome: PCI-Luc complex, polymer vs no polymer (length comparison): 7.5 nmole polymer; for increase of transfection efficiency of branched polymer compared to the linear H-K polymer: with liposomes and 0.75 μg DNA, optimal dose; for transfection efficiency / uptake of liposomes (sequence order comparison): polymer mixed with DNA then liposomes, cell line not stated
Method: as §1

[5] = system: tumor; experiment: Intratumoral injection of branched polymer carrier of PCI-Luc, gene expression; format: in vivo; conditions: injected intratumorally
Description: FIG. 20. Comparison of the in vitro and in vivo transfection efficiencies of branched transport polymers having different lysine content. In contrast to in vitro experiments, local injection of a branched polymer with a lower lysine content enhanced transfection. A) In vitro comparison of HH-K4b and HHH-K4b as gene delivery carriers of PCI-Luc.
In place of lysine or other cationic amino acids (e.g., ornithine and arginine), other amino acids may be substituted. The preferred amino acids to be substituted for lysines are hydrophilic amino acids such as asparagine or serine.

[6] = system: MDA-MB-435 cells; experiment: In vitro transfection with polymer:DNA complex in the absence of liposomes, luciferase activity; format: cell-based, human; conditions: no liposomes
Method: as §1
Effect on transfection efficiency of a polymer:DNA complex: To determine the effect of branching on the transfection efficiency of a polymer:DNA complex, 7.5 nmol of H-K or 0.375 nmol of HH-K4b was mixed with PCI-Luc, and luciferase activity was measured as described above.
HH-K4b and HHH-K4b, respectively, have a histidine to lysine ratio of 1.5 and 2.4, respectively. […] In vitro transfection experiments were performed on MDA-MB-435 cells as described previously in 6.2 and 6.4.3. For the formation of the complex, 3.75 μg of polymer was mixed with 0.75 μg of PCI-Luc, and experiments were performed in a 24-well plates.

[7] = system: mice with 66.1 cell lung metastases; experiment: Intravenous delivery of polymer:liposome:PCI-Luc, lung luciferase activity; format: in vivo; conditions: complex with DOTAP/cholesterol liposomes, tumor laden mice, lungs six hours later
Method: FIG. 19. Branched transport polymer in combination with liposomes enhanced transfection efficiency when administered intravenously. Two weeks prior to injection of complex, 1.0×10^5 of 66.1 cells (a murine breast cancer cell line) were injected into mice to establish lung metastases. 6 μg of HH-K4b (volume-60 μl) was mixed with 30 μg of PCI-Luc (volume-60 μl). After 40 min, 18 μg of liposomes (DOTAP:cholesterol, volume-60 μl) was added and gently mixed for another 30 min. Total volume of the polymer: liposome: DNA solution is 180 μl. 0.28 μl of 1 M Hepes was mixed with H-K or HH-K4b solution, respectively, to neutralize to approximately pH-7.0. Liposome in complex with PCI-Luc complexes were prepared similarly. 150 μl of the complex solution was injected via the tail vein into the mice. Six hours later, the lungs were homogenized and the luciferase activity was measured in each group.
The liposomes were composed of DOTAP and cholesterol in a 1 to 1 molar ratio.

[8] = system: MDA-MB-435 tumors in nude mice; experiment: In vivo tumor growth after intratumoral injection of HH-K4b:oligonucleotide complexes (DNAzyme against VEGF receptor mRNA); conditions: SEM in parentheses
Method: In vivo delivery of pharmaceutical agents. […] In this example, the receptor of VEGF mRNA with a DNA oligonucleotide that has enzymatic activity (also called DNAzyme) (36) was targeted. The VEGF receptor is essential for tumor angiogenesis and consequently tumor growth. After breast cancer cells (MDA-MB-435 cells) were injected into nude mice and the tumors grew to a visible size, the tumor was injected with the therapeutic polymer-DNA complex. The tumor was injected every 5 days for a total of 5 injections. There were 4 treatment groups: 1) untreated, 2) HH-K4B carrier alone, 3) HH-K4b+DNAzyme, and 4) HH-K4b+antisense oligonucleotides. To prepare the complex for injection, 45 μg of the HH-K4b polymer diluted in 150 μl of water was mixed with 24 μg of oligonucleotide, also diluted in 150 μl of water. After formation of the complex for 2 hours, 25 μl of the treatment complex was injected into each tumor. The therapeutic oligonucleotide sequence is 5′-TGCTCTCCA-GGCTAGCTACAACGA-CCTGCACCT-3′ (SEQ ID NO:18) whereas the control antisense oligonucleotide sequence is 5′-TGCTCTCCA-GGCTATGTACAACGA-CCTGCACCT-3′. (SEQ ID NO:19) The only difference between the therapeutic DNAzyme sequence and the antisense sequences is that the nucleotides responsible for cleaving the mRNA have been altered with the antisense DNA.

[9] = system: MDA-MB-435 cells; experiment: Uptake of polymer:fluorescein-labeled oligonucleotide complex, CytoFluor fluorescence; format: cell-based, human; conditions: no liposomes; 0.75 μg 32-mer; 4 hour incubation, measured 24 hours later
Method: Effect on uptake of a polymer:oligonucleotide complex: In a second experiment, the same amount of HK or HHK4b was mixed with 0.75 μg of a 5′-end fluorescein-labeled randomly generated oligonucleotide(32-mer) for 30 minutes. This complex was added to the MDA-MB-435 cells for 4 hour incubation. Twenty-four hours later, the cells were then washed, and measured by CytoFluor fluorescence Measurement System. (Millipore, Bedford, Miss.).

[10] = system: endothelial cells (BAEC); experiment: In vitro transfection with polymer:liposome:DNA complexes, luciferase activity; format: cell-based, bovine
Method: To further investigate the extent to which histidine order could affect transfection efficiency, four polymer solutions containing a different linear histidine copolymer (H-K (19-mer) (SEQ ID NO:3), HHH-K (20-mer) (SEQ ID NO:6), HH-K (20-mer) (SEQ ID NO:5), or K-HK (21-mer) (SEQ ID NO:9)) were mixed in amounts ranging from 0.125 μl to 2.5 μl with 0.75 μg DNA. The concentration of each of the polymer solutions was […]. After 30 minutes, 1.5 μg of liposomes were added. After adding the delivery compositions to endothelial cells (BAEC) for 4 hours, the cells were washed, and luciferase activity measured 48 hours later (FIG. 14).

## CO/C1=C\C(C)=C\[C@@H](C)[C@@H](O)[C@@H](C)C/C(C)=C/C=C/[C@H](OC)[C@@H]([C@@H](C)[C@@H](O)[C@H](C)[C@@]2(O)C[C@@H](O)[C@H](C)[C@@H](C(C)C)O2)OC1=O [bafilomycin A1]
[1]; CHO cells
  effect of lysosomotropic agent on transfection of the H-K: liposome: PCI-Luc triplex: significantly increased
[1]; CHO cells, 10 ng/ml bafilomycin added with transfection agents
  increase of transfection efficiency of the H-K: liposome: PCI-Luc triplex by lysosomotropic agent: 5 fold
[1]; absence of the histidine copolymer
  effect of lysosomotropic agent on transfection efficiency of the liposome: PCI-Luc complex: did not enhance the transfection efficiency
[2]
  effect of lysosomotropic agent on transfection of the H-K: liposome: PCI-Luc triplex: significantly increased

## CCN(CC)CCCC(C)Nc1ccnc2cc(Cl)ccc12 (stereo not shown) [chloroquine]
[1]; CHO cells
  effect of lysosomotropic agent on transfection of the H-K: liposome: PCI-Luc triplex: significantly increased
[2]
  effect of lysosomotropic agent on transfection of the H-K: liposome: PCI-Luc triplex: significantly increased

## [Zn+2] [zinc]
[3]
  effect of added zinc on transfection efficiency of polymer:liposome:DNA complexes: can enhance transfection efficiency

## H-R (19-mer): arginine-histidine copolymer, SEQ ID NO: 13 (RHRHRHRHRGRHRHRHRHR)
[4]
  transfection efficiency compared to H-K (19-mer): significantly better than H-K

## KHKHKHKHKGKHKHKHKHK-NH2 [H-K (19-mer), [K-H-K-H-K-H-K-H-K-G-K-H-K-H-K-H-K-H-K]]
[4]; even at concentrations of 0.5 mM
  morphologic evidence of cellular toxicity due to the polymer: No morphologic evidence of cellular toxicity

## [K-H-H-H-K-H-H-H-K-H-H-H-K-H-H-H-K]4K3 (KHHHKHHHKHHHKHHHK; also: four copies on branched lysine core (K3)) [HHH-K4b, branched polymer on lysine core]
[5]
  efficiency as carrier of nucleic acids compared to DOTAP liposomes or HH-K4b carrier: much more efficient as a carrier of nucleic acids

## [KHKHHKHHKHHKHHKHHKHK]4K3 [HH-K4b]
[6]; 3.75 μg polymer, 0.75 μg PCI-Luc
  in vitro transfection compared to HHH-K4b: significantly more effective transfection agent in vitro
[6]; 0.375 nmol HH-K4b vs 7.5 nmol H-K
  transfection efficiency of polymer:DNA complex compared to linear H-K polymer: better
[6]; data not shown
  luciferase expression as sole carrier of DNA compared to HH-K3b, HH-K2b and H-K4b: better at enhancing luciferase expression
[7]
  gene (luciferase) expression compared to liposomes only: 7 fold
[8]; measured before 1st injection (baseline)
  tumor volume, 1st Injection: 9.5 (1.1)
[8]; measured before 2nd injection, intratumoral every 5 days
  tumor volume, 2nd Injection: 63.7 (10.7)
[8]; measured before 3rd injection, intratumoral every 5 days
  tumor volume, 3rd Injection: 134 (30)
[8]; measured before 4th injection, intratumoral every 5 days
  tumor volume, 4th Injection: 236 (55)
[8]; measured before 5th injection, intratumoral every 5 days
  tumor volume, 5th Injection: 429 (94)
[9]
  uptake of oligonucleotides compared to linear HK polymer: oligonucleotides complex: significantly enhanced uptake

## [K-H-K-H-K-H-K-G-K-H-K-H-K] (KHKHKHKGKHKHK) [H-K (13 mer)]
[4]
  transfection efficiency of the liposome: PCI-Luc complex, polymer vs no polymer (length comparison): increased the transfection efficiency

## [KHKHKHKHKGKHKHKHKHKGKHKHKHKHK] (KHKHKHKHKGKHKHKHKHKGKHKHKHKHK) [H-K (29 mer)]
[4]
  transfection efficiency of the liposome: PCI-Luc complex, polymer vs no polymer (length comparison): increased the transfection efficiency
[4]; 7.5 nmole polymer with liposome and DNA
  transfection efficiency compared to the 13 mer: increased transfection efficiency more than the 13 mer

## [K-H-K-H-K-H-K-H-K-G-K-H-K-H-K-H-K-H-K]2 K [H-K2b]
[4]; absence of serum
  increase of transfection efficiency of branched polymer compared to the linear H-K polymer: approximately 10 fold
[4]; presence or absence of serum, H-K2b 0.25 μg + DNA 0.75 μg + liposomes 1.5 μg vs PEI 0.5 μg
  transport of DNA into cells (luciferase) relative to PEI: more than 10 fold

## [K-H-K-H-K-H-K-H-K-G-K-H-K-H-K-H-K-H-K]3 K2 [H-K3b]
[4]; absence of serum
  increase of transfection efficiency of branched polymer compared to the linear H-K polymer: approximately 10 fold

## [K-H-K-H-K-H-K-H-K-G-K-H-K-H-K-H-K-H-K]4 K3 [H-K4b]
[4]; absence of serum
  increase of transfection efficiency of branched polymer compared to the linear H-K polymer: approximately 10 fold

## [KKHHHKHHHKKHHHKHHHKK] (KKHHHKHHHKKHHHKHHHKK) [HHH-K]
[10]; highest concentration of polymer used
  transfection of DNA in combination with liposomes, rank among four polymers: most effective of the four
[10]; lower concentrations of polymer
  transfection of DNA in combination with liposomes, rank among four polymers: not as effective as the other three polymers tested

## [K-K-K-K-K-K-K-K-K-G-K-K-K-K-K-K-K-K-K] (KKKKKKKKKGKKKKKKKKK) [poly-L-lysine, reference compound]
[4]; presence vs absence of 10% serum
  effect of serum on transfection efficiency of polymer:liposome carrier: markedly decreased in the presence of serum

## [K-S-K-S-K-S-K-S-K-G-K-S-K-S-K-S-K-S-K] (KSKSKSKSKGKSKSKSKSK) [S-K (19-mer)]
[4]; absence of serum, with liposome: PCI-Luc
  transfection efficiency compared to no polymer: enhanced the transfection efficiency slightly more than when no polymer was added
[4]
  transfection efficiency compared to H-K (19-mer): significantly less effective

## [YGRKKRRQRRRGKHKHKHKHKHKHKHKHK] (YGRKKRRQRRRGKHKHKHKHKHKHKHKHK) [Y-HK]
[4]; presence or absence of serum
  transfection efficiency / uptake of liposomes (sequence order comparison): accelerated useful transfection efficiency

## [YGRKKRRQRRRHHKHHKHHKHHKHHK] (YGRKKRRQRRRHHKHHKHHKHHKHHK) [Y-HH]
[4]; presence or absence of serum
  transfection efficiency / uptake of liposomes (sequence order comparison): significantly enhanced the uptake of liposomes

— patent US7070807B2, “Branched histidine copolymers and methods for using same” (priority 1999, dated 2006)
